These molecules were tested against T1, c-kit (Homo sapiens, UniProt P10721) (assay: Mo7e cell proliferation assay (SCF dependent proliferation)). Conditions: Table 1; human Mo7e cells stimulated with human recombinant SCF, 48 h, CellTiter Glo; 1% FBS (footnote).
T1 construct: human Mo7e cells which endogenously express c-kit; endogenous in cells; host or cells: human Mo7e cells (SCF-dependent promegakaryocytic leukemia line)
T1 sequence (P10721 26-976): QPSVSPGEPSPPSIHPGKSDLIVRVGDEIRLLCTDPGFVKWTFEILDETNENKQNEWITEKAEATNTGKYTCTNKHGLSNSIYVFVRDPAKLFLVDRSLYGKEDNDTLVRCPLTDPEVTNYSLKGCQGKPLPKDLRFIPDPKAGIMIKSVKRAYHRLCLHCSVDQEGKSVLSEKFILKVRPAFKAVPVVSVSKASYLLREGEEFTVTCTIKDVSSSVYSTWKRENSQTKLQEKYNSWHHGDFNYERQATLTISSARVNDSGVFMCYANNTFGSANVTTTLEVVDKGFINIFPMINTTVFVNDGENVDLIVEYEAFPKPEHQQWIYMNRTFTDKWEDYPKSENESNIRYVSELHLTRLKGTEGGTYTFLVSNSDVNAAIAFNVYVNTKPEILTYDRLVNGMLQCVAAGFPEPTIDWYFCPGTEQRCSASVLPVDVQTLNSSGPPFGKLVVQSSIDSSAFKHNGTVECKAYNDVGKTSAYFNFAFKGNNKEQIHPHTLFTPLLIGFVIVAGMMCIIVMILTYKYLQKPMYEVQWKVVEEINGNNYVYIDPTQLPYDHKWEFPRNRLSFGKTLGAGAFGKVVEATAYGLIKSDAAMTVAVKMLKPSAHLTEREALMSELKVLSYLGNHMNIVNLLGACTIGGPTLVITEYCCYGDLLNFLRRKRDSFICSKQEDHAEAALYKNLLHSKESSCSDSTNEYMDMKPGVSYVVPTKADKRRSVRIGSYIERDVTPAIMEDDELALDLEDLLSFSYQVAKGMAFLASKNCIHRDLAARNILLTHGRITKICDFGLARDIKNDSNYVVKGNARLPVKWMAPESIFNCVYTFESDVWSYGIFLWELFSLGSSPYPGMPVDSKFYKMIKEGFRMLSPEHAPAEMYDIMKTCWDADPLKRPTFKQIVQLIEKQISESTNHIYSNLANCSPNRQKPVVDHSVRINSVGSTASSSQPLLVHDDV
Assay type: cell-based
Method in brief: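 SCF-dependent proliferation of human Mo7e cells, which express c-kit endogenously, was measured after 48 h at 37° C by CellTiter Glo luminescence. IC50 was taken as the concentration giving a response halfway between the baseline and maximum responses.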
Work on Cc1ccn2c(C(=O)Nc3cc(-c4noc(CCC(O)C(F)(F)F)n4)ccc3C)cnc2c1 (centres unmarked) [F253] yielded an IC50 of 13 nM.
Cc1ccn2c(C(=O)Nc3cc(-c4noc(CC(O)(C(F)(F)F)C(F)(F)F)n4)ccc3C)cnc2c1 [F254] showed an IC50 of 51 nM.

Same assay, conditions: Table 2, values marked *: 20% FBS instead of 1% FBS
Cc1ccc(-c2nc(CC(=O)N(C)C)no2)cc1NC(=O)c1cnc2ccccn12 [F233] was tested, and the IC50 was greater than 6000 nM.

Same assay, conditions: Table 2; human Mo7e cells stimulated with human recombinant SCF, 48 h, CellTiter Glo; 1% FBS (footnote)
Molecule Cc1ccc(-c2noc(C[C@@H](C)N)n2)cc1NC(=O)c1cnc2ccccn12 [F219] has an IC50 of 1190 nM.
With Cc1ccc(-c2noc(CNC(=O)OCCC(F)(F)F)n2)cc1NC(=O)c1cnc2ccccn12 [F220] the IC50 was 1190 nM.
Cc1ccc(-c2noc(CCC(C)(C)O)n2)cc1NC(=O)c1cnc2ccc(-n3ccnc3)cn12 [F221] was tested, and the IC50 was 1250 nM.
For CC(=O)NCCCc1nc(-c2ccc(C)c(NC(=O)c3cnc4ccccn34)c2)no1 [F222], the IC50 was 1320 nM.
In the case of Cc1ccc(-c2noc(CNC(=O)CC(C)(C)O)n2)cc1NC(=O)c1cnc2ccccn12 [F223], the IC50 is reported as 1460 nM.
With Cc1ccc(-c2noc(CNC(=O)CCO)n2)cc1NC(=O)c1cnc2ccccn12 [F224] the IC50 was 1480 nM.
For Cc1ccc(-c2nc(C(C)(C)C)no2)cc1NC(=O)c1cnc2ccccn12 [F225], the IC50 was 1590 nM.
Cc1ccc(-c2noc(CCN)n2)cc1NC(=O)c1cnc2ccccn12 [F226] was tested, and the IC50 was 2180 nM.
For Cc1ccc(-c2noc(CC#N)n2)cc1NC(=O)c1cnc2ccccn12 [F227], the IC50 was 2380 nM.
With Cc1ccc(-c2noc(CCC(=O)O)n2)cc1NC(=O)c1cnc2ccccn12 [F229] the IC50 was 5450 nM.
Work on COC(=O)NCc1nc(-c2ccc(C)c(NC(=O)c3cnc4ccc(CCC(=O)O)cn34)c2)no1 [F230] yielded an IC50 greater than 10000 nM.
Cc1ccc(-c2noc(CC(F)(F)F)n2)cc1NC(=O)c1cnc2ccccn12 [F231] gave an IC50 greater than 10000 nM.
COC(=O)NCc1nc(-c2ccc(C)c(NC(=O)c3cnc4cc(CCC(=O)O)ccn34)c2)no1 [F232] showed an IC50 greater than 10000 nM.
Cc1nc(-c2ccc(C)c(NC(=O)c3cnc4ccc(-c5c(C)nn(CC(=O)OC(C)(C)C)c5C)cn34)c2)no1 [F234] was tested, and the IC50 was 209 nM.
Cc1nc(-c2ccc(C)c(NC(=O)c3cnc4ccc(-c5c(C)nn(CC(=O)O)c5C)cn34)c2)no1 [F235] showed an IC50 of 2460 nM.
Work on Cc1nc(-c2ccc(C)c(NC(=O)c3cnc4ccc(-c5nc(C)c(C(C)O)s5)cn34)c2)no1 (centres unmarked) [F236] yielded an IC50 of 166 nM.
Work on Cc1nc(-c2ccc(C)c(NC(=O)c3cnc4ccc(-c5nc(C)c(C)s5)cn34)c2)no1 [F237] yielded an IC50 of 182 nM.
Cc1nc(-c2ccc(C)c(NC(=O)c3cnc4ccc(-c5c(C)nn(CC(=O)NCCN6CCOCC6)c5C)cn34)c2)no1 [F239] showed an IC50 of 193 nM.
Cc1nc(-c2ccc(C)c(NC(=O)c3cnc4ccc(C(N)=O)cn34)c2)no1 [F240] showed an IC50 of 1480 nM.
Work on Cc1nc(-c2ccc(C)c(NC(=O)c3cnc4ccc(C(N)=S)cn34)c2)no1 [F241] yielded an IC50 of 127 nM.
For Cc1nc(-c2ccc(C)c(NC(=O)c3cnc4ccc(-c5nc(C)c(C(=O)NCCO)s5)cn34)c2)no1 [F242], the IC50 was 155 nM.
In the case of Cc1nc(-c2ccc(C)c(NC(=O)c3cnc4ccc(-c5nc(C)c(C(=O)NCCN6CCN(C)CC6)s5)cn34)c2)no1 [F243], the IC50 is reported as 194 nM.
Cc1nc(-c2ccc(C)c(NC(=O)c3cnc4ccc(-c5nc(C)c(C(=O)NCCN6CCOCC6)s5)cn34)c2)no1 [F245] showed an IC50 of 120 nM.
Cc1ccc(-c2noc(CCC(C)(C)O)n2)cc1NC(=O)c1cnc2c(N)cccn12 [F246] was tested, and the IC50 was 1800 nM.
Cc1nc(-c2ccc(C)c(NC(=O)c3cnc4ccc(-c5sc(C(=O)O)nc5C)cn34)c2)no1 [F247] was tested, and the IC50 was 341 nM.
Cc1nc(-c2ccc(C)c(NC(=O)c3cnc4ccc(-c5sc(C(=O)NCCN6CCN(C)CC6)nc5C)cn34)c2)no1 [F248] showed an IC50 of 140 nM.
Cc1ccn2c(C(=O)Nc3cc(-c4noc(CCC(C)(C)OC(=O)CN)n4)ccc3C)cnc2c1 [F249] was tested, and the IC50 was 108 nM.
With Cc1ccn2c(C(=O)Nc3cc(-c4noc(CC[C@@](C)(OC(=O)[C@@H](N)C(C)C)C(F)(F)F)n4)ccc3C)cnc2c1 [F251] the IC50 was 142 nM.
Molecule Cc1ccn2c(C(=O)Nc3cc(-c4noc(CC[C@](C)(OC(=O)[C@H](N)C(C)C)C(F)(F)F)n4)ccc3C)cnc2c1 [F252] has an IC50 of 134 nM.

Source: US20150011508A1, “COMPOUNDS AND COMPOSITIONS AS C-KIT KINASE INHIBITORS” (priority 2011, published 2015)
